Test results taken from PubChem BioAssay (NCI).
Where “and” joins values, the source holds several entries; their conditions need not be identical. Equal values may be shown once.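 In this assay, cells in 96-well plates receive the compound at five concentrations for 48 hours. Endpoints are linearly interpolated between the surrounding concentrations. GI50 is the concentration that inhibits growth by half. Definition used: TGI = concentration required for complete inhibition of growth.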

What was measured:
Assay in all cases: inhibition of tumour cell growth, NCI panel, 48 h
A549 NSCLC = system: A549 NSCLC
BT-549 breast = system: BT-549 breast
LOX IMVI melanoma = system: LOX IMVI melanoma
MDA-N = system: MDA-N
NCI-H522 lung = system: NCI-H522 lung
RPMI-8226 leukemia = system: RPMI-8226 leukemia
SNB-75 CNS = system: SNB-75 CNS
SR leukemia = system: SR leukemia
TK-10 renal = system: TK-10 renal
SNB-78 CNS = system: SNB-78 CNS

Compound | TGI (A549 NSCLC) | TGI (BT-549 breast) | TGI (LOX IMVI melanoma) | TGI (MDA-N) | TGI (NCI-H522 lung) | TGI (RPMI-8226 leukemia) | TGI (SNB-75 CNS) | TGI (SR leukemia) | TGI (TK-10 renal) | GI50 (A549 NSCLC) | GI50 (LOX IMVI melanoma) | GI50 (NCI-H522 lung) | GI50 (RPMI-8226 leukemia) | GI50 (SNB-75 CNS) | GI50 (SNB-78 CNS) | TGI (SNB-78 CNS) | GI50 (BT-549 breast) | GI50 (SR leukemia) | GI50 (TK-10 renal)
COc1cc(/C=N/NC(=O)c2c(Cl)c(Cl)c(Cl)c(Cl)c2-c2nc3ccc(C(=O)c4ccccc4)cc3[nH]2)ccc1O | > 100 µM | > 100 µM | > 100 µM | 52 µM | > 100 µM | 89.5 µM | > 100 µM | 54.4 µM | > 100 µM | – | – | – | – | – | – | – | – | – | –
O=C(/C=C/c1ccc([N+](=O)[O-])cc1)N1CCN(CCOC(c2ccc(F)cc2)c2ccc(F)cc2)CC1 | > 100 µM | > 100 µM | > 100 µM | > 100 µM | > 100 µM | 36.9 µM | > 100 µM | 40.5 µM | > 100 µM | – | – | – | – | – | – | – | – | – | –
COc1cccc([C@@H]2C/C(=N\NC(=O)C(=O)N[C@@H](C)c3ccccc3)c3ccccc3N2)c1 | > 100 µM | – | > 100 µM | > 100 µM | – | > 100 µM | > 100 µM | – | > 100 µM | – | – | – | – | – | – | – | – | – | –
c1ccc(/C(=N\Nc2nc3ccccc3[nH]2)c2ccccn2)cc1 | 22.1 µM | 14.5 µM | 7.44 µM | 18.4 µM | 0.69 µM | 1.07 µM | 3.85 µM | > 31.8 µM | 3.82 µM | – | – | – | – | – | – | – | – | – | –
c1ccc(CSC(SCc2ccccc2)c2cccc3ccccc23)cc1 | > 10 µM | – | – | > 10 µM | > 10 µM | > 10 µM | > 10 µM | > 10 µM | > 10 µM | – | – | – | – | – | – | – | – | – | –
C[n+]1c2ccccc2c(N=[N+]=[N-])c2ccccc21 | > 10 µM | > 10 µM | 7.63 µM | – | > 10 µM | > 10 µM | – | > 10 µM | > 10 µM | – | – | – | – | – | – | – | – | – | –
O=C1OC(c2ccc(O)cc2)(c2ccc(O)cc2)c2ccc(Cl)c3cccc1c23 (tested in a mixture with another compound) | > 75 µM | 31.7 µM | 20.8 µM | 25.7 µM | – | 28.4 µM | – | 28.4 µM | 52.6 µM | – | – | – | – | – | – | – | – | – | –
CC[C@@]1(O)CC(OC2CC(N3CCOCC3)C(O)C(C)O2)c2c(O)c3c(c(O)c2[C@H]1O)C(=O)c1cccc(O)c1C3=O (stereo partly drawn) | 0.6 µM | 0.349 µM | 0.886 µM and 0.437 µM | 1.04 µM | 0.906 µM and 0.407 µM | 2.15 µM and 5.08 µM | 0.93 µM and 0.399 µM | 25 µM | 1.7 µM | 0.000605 µM | 0.0207 µM | 0.055 µM | 0.0561 µM | 0.0452 µM | 0.64 µM | 2.83 µM and 24.3 µM | – | – | –
Cc1cc(C)c2c(=O)n(CC(O)CN(Cc3ccccc3)CC(O)Cn3sc4nc(C)cc(C)c4c3=O)sc2n1 (stereo not drawn) | 40.7 µM | 38.3 µM | 33.9 µM | 32.8 µM | 22 µM | > 100 µM | 28.9 µM | > 100 µM | 31.5 µM | – | – | – | – | – | – | – | – | – | –
NC1CCN(c2nc3ccccc3c3c2CCCC3)CC1 | 23.5 µM | 25.9 µM | 14.2 µM | 9.6 µM | 19.3 µM | 11.1 µM | 22.1 µM | – | 23.2 µM | – | – | – | – | – | – | – | – | – | –
O=C(CSCC(=O)N/N=C\c1ccc(F)cc1F)N/N=C\c1ccc(F)cc1F | > 100 µM | – | > 100 µM | – | > 100 µM | > 100 µM | > 100 µM | > 100 µM | > 100 µM | – | – | – | – | – | – | – | – | – | –
C=C(CN(C)C)C(=O)c1ccccc1OC | > 100 µM | 31.9 µM | 29.3 µM | 34 µM | 6.01 µM | > 62.7 µM | 61 µM | > 56 µM | 30.3 µM | – | – | – | – | – | – | 62.8 µM | – | – | –
O=C(O)c1cc2ccccc2c(N=Nc2ccc(S(=O)(=O)Nc3ccccn3)cc2)c1O | > 100 µM | > 100 µM | – | > 100 µM | > 100 µM | > 100 µM | > 100 µM | > 100 µM | > 100 µM | – | – | – | – | – | – | – | – | – | –
CC1(C)CN(CC(=O)O)CC(Cc2ccc(OCC(=O)O)cc2)N(CC(=O)O)CC(C)(C)SS1 (stereo not drawn) | > 100 µM | > 100 µM | > 100 µM | > 100 µM | > 100 µM | > 100 µM | > 100 µM | – | > 100 µM | – | – | – | – | – | – | – | – | – | –
CCOC(=O)C1=C(C(=O)OCC)SC2(S1)C(C(=O)OCC)=C(C(=O)OCC)Sc1c2ssc1=O | 5.38 µM | 4.51 µM | 1.42 µM | 4.36 µM | 4.46 µM | 4.56 µM | 3.94 µM | > 100 µM | 3.16 µM | – | – | – | – | – | – | – | – | – | –
COc1ccccc1C#C/C=C\C#Cc1ccccc1C#N | > 100 µM | – | – | – | 25.7 µM | – | > 100 µM | 29.9 µM | > 100 µM | – | – | – | – | – | – | – | – | – | –
N#CC1(CCCI)CCCC1 | > 100 µM | – | 22.9 µM | – | 28.7 µM | – | 20.2 µM | > 100 µM | > 100 µM | – | – | – | – | – | – | 38.3 µM | – | – | –
C[C@]12CC[C@H]3[C@@H](CC=C4C[C@@H](O)CC[C@@]43C)[C@@H]1C/C(=C\c1ccncc1)[C@@H]2O | 61.3 µM | 19.9 µM | 61 µM | 54.4 µM | 57.7 µM | 48.9 µM | 62.8 µM | 57.3 µM | > 100 µM | – | – | – | – | – | – | – | – | – | –
Cc1[nH]c2ncn3[nH]c(=S)nc3c2c1Cc1ccccc1 | > 100 µM | > 100 µM | – | – | > 100 µM | – | > 100 µM | – | > 100 µM | – | – | – | – | – | – | – | – | – | –
Cc1ncc(C(=O)Nc2ccc(CN3CCN(C)CC3)c(C(F)(F)F)c2)cc1C#Cc1cnc(N)c2ccc(C#N)cc12 | – | > 100 µM | – | – | > 100 µM | – | – | > 100 µM | 2.82 µM | – | – | 0.0788 µM | – | – | – | – | 0.631 µM | 0.0607 µM | 0.0572 µM
CC(C)CCN(CCC(C)C)CC(=O)Nc1ccc(S(=O)(=O)c2ccc(NC(=O)CN(CCC(C)C)CCC(C)C)cc2)cc1 | 25.7 µM | 3.36 µM | – | – | 3.2 µM | – | 42 µM | 5.19 µM | 25.5 µM | 5.38 µM | – | 1.53 µM | – | 13.3 µM | – | – | 1.16 µM | 1.72 µM | 12.2 µM
O=C1Nc2cccc(Cl)c2/C1=C\c1cccnc1 | 33.6 µM | 24.4 µM | > 100 µM | – | 21.6 µM | – | 40.2 µM | – | 34.7 µM | – | – | – | – | – | – | – | – | – | –
O=C1N[C@H]2C(=O)c3c(Br)sc(Br)c3[C@H]2O1 | 40.4 µM | 28.3 µM | 11.4 µM | 20.1 µM | 3.22 µM | > 45 µM | 31.4 µM | 6.27 µM | 41 µM | – | – | – | – | – | – | – | – | – | –
COC(=O)c1c(O)ccc2c1c1c(n2CCc2ccc(OC)c(OC)c2)C(=O)c2ccccc2C1=O | 47.2 µM | 27.8 µM | – | 25.5 µM | 14 µM | 28 µM | – | 51.3 µM | 57.1 µM | – | – | – | – | – | – | – | – | – | –
Nc1ccc(Oc2ccc(C34CC5CC(C3)CC(c3ccc(Oc6ccc(N)cc6C(F)(F)F)cc3)(C5)C4)cc2)c(C(F)(F)F)c1 | 49 µM | 52.1 µM | 31.8 µM | > 100 µM | 30.3 µM | – | – | – | 31.1 µM | – | – | – | – | – | – | – | – | – | –
Cc1csc2nc(-c3cccc([N+](=O)[O-])c3)c(/C=N/N=C(N)N)n12 | 3.34 µM | 2.49 µM | – | 3.04 µM | 3.26 µM | – | 3.16 µM | – | 3.17 µM | – | – | – | – | – | – | – | – | – | –
CCCCCCCCCCCCc1ccc(S(=O)(=O)O)cc1.[Cu+2] | > 100 µM | – | > 100 µM | > 100 µM | – | > 100 µM | > 100 µM | – | > 100 µM | – | – | – | – | – | – | – | – | – | –
N#Cc1c(-c2ccc([N+](=O)[O-])cc2)c2c([nH]c1=O)-c1ccccc1CCC2 | > 100 µM | 85.9 µM | > 100 µM | > 100 µM | > 100 µM | > 100 µM | – | > 100 µM | > 100 µM | – | – | – | – | – | – | – | – | – | –
